Laboratory results: PubChem BioAssay (NCI)
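Briefly, cells in 96-well plates were exposed to five compound concentrations for 48 h, and endpoints were estimated by linear interpolation. At the GI50, growth is halved. The concentration for full growth arrest is given as TGI.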

What was measured:
Assay in all cases: inhibition of tumour cell growth, NCI panel, 48 h; in the data active = GI50 below about 0.43 µM; inactive = the rest
HOP-62 NSCLC = tested on: HOP-62 NSCLC
SN12C renal = tested on: SN12C renal
SF-295 CNS = tested on: SF-295 CNS
A498 renal = tested on: A498 renal
IGROV1 ovarian = tested on: IGROV1 ovarian
EKVX NSCLC = tested on: EKVX NSCLC
MOLT-4 leukemia = tested on: MOLT-4 leukemia
HCT-116 colon = tested on: HCT-116 colon
SF-268 CNS = tested on: SF-268 CNS
OVCAR-4 ovarian = tested on: OVCAR-4 ovarian
786-0 renal = tested on: 786-0 renal
DU-145 prostate = tested on: DU-145 prostate
OVCAR-5 ovarian = tested on: OVCAR-5 ovarian
TK-10 renal = tested on: TK-10 renal
CCRF-CEM leukemia = tested on: CCRF-CEM leukemia
T-47D breast = tested on: T-47D breast
SK-MEL-28 melanoma = tested on: SK-MEL-28 melanoma
MDA-MB-435 = tested on: MDA-MB-435
SK-MEL-5 melanoma = tested on: SK-MEL-5 melanoma
NCI-H522 lung = tested on: NCI-H522 lung
COLO 205 colon = tested on: COLO 205 colon
SK-MEL-2 melanoma = tested on: SK-MEL-2 melanoma
NCI/ADR-RES ovarian = tested on: NCI/ADR-RES ovarian
MALME-3M melanoma = tested on: MALME-3M melanoma
A549 NSCLC = tested on: A549 NSCLC
SF-539 CNS = tested on: SF-539 CNS
SNB-19 CNS = tested on: SNB-19 CNS
PC-3 prostate = tested on: PC-3 prostate
OVCAR-3 ovarian = tested on: OVCAR-3 ovarian
MDA-MB-231 breast = tested on: MDA-MB-231 breast
UACC-62 melanoma = tested on: UACC-62 melanoma
HCT-15 colon = tested on: HCT-15 colon
BT-549 breast = tested on: BT-549 breast
HT29 colon = tested on: HT29 colon
U251 CNS = tested on: U251 CNS
NCI-H226 lung = tested on: NCI-H226 lung
SNB-75 CNS = tested on: SNB-75 CNS
UACC-257 melanoma = tested on: UACC-257 melanoma
OVCAR-8 ovarian = tested on: OVCAR-8 ovarian
UO-31 renal = tested on: UO-31 renal
SK-OV-3 ovarian = tested on: SK-OV-3 ovarian
SW-620 colon = tested on: SW-620 colon
LOX IMVI melanoma = tested on: LOX IMVI melanoma
MCF7 breast = tested on: MCF7 breast
HOP-92 NSCLC = tested on: HOP-92 NSCLC
K-562 leukemia = tested on: K-562 leukemia
HCC-2998 colon = tested on: HCC-2998 colon
RXF 393 renal = tested on: RXF 393 renal
NCI-H23 lung = tested on: NCI-H23 lung
HS 578T breast = tested on: HS 578T breast
CAKI-1 renal = tested on: CAKI-1 renal
KM12 colon = tested on: KM12 colon
RPMI-8226 leukemia = tested on: RPMI-8226 leukemia
NCI-H460 lung = tested on: NCI-H460 lung
M14 melanoma = tested on: M14 melanoma

COc1cc2c3c(n(CCCCl)c(=O)c2cc1OC)-c1ccc(C#N)cc1C3=O
15.8 µM: TGI (SNB-75 CNS)
44 µM: TGI (SK-OV-3 ovarian)
28.2 µM: TGI (SF-539 CNS)
10.2 µM: TGI (MDA-MB-231 breast)
22.5 µM: TGI (UACC-62 melanoma)
58.8 µM: TGI (A498 renal)
25.9 µM: TGI (HCC-2998 colon)
29.4 µM: TGI (786-0 renal)
94.9 µM: TGI (NCI-H226 lung)
21.9 µM: TGI (HS 578T breast)
67.6 µM: TGI (EKVX NSCLC)
34.4 µM: TGI (OVCAR-8 ovarian)
24.5 µM: TGI (SK-MEL-2 melanoma)
18.1 µM: TGI (RXF 393 renal)
23.6 µM: TGI (BT-549 breast)
> 100 µM: TGI (SN12C renal) | TGI (MOLT-4 leukemia) | TGI (HCT-116 colon) | TGI (SF-268 CNS) | TGI (OVCAR-4 ovarian) | TGI (DU-145 prostate) | TGI (OVCAR-5 ovarian) | TGI (CCRF-CEM leukemia) | TGI (T-47D breast) | TGI (SK-MEL-28 melanoma) | TGI (MDA-MB-435) | TGI (SK-MEL-5 melanoma) | TGI (COLO 205 colon) | TGI (NCI/ADR-RES ovarian) | TGI (A549 NSCLC) | TGI (SNB-19 CNS) | TGI (PC-3 prostate) | TGI (HT29 colon) | TGI (UACC-257 melanoma) | TGI (UO-31 renal) | TGI (SW-620 colon) | TGI (MCF7 breast) | TGI (K-562 leukemia) | TGI (KM12 colon) | TGI (RPMI-8226 leukemia) | TGI (NCI-H460 lung) | TGI (M14 melanoma)
74.4 µM: TGI (MALME-3M melanoma)
inactive: GI50 (HOP-62 NSCLC) 14.7 µM | GI50 (SN12C renal) 22.7 µM | GI50 (SF-295 CNS) 5 µM | GI50 (A498 renal) 16.1 µM | GI50 (IGROV1 ovarian) 3.64 µM | GI50 (EKVX NSCLC) 7.99 µM | GI50 (MOLT-4 leukemia) 1.68 µM | GI50 (HCT-116 colon) 15.2 µM | GI50 (SF-268 CNS) 19.5 µM | GI50 (OVCAR-4 ovarian) 88.7 µM | GI50 (786-0 renal) 14.4 µM | GI50 (DU-145 prostate) 10.7 µM | GI50 (OVCAR-5 ovarian) 33.6 µM | GI50 (TK-10 renal) 13.5 µM | GI50 (CCRF-CEM leukemia) 3.59 µM | GI50 (T-47D breast) > 100 µM | GI50 (SK-MEL-28 melanoma) > 100 µM | GI50 (MDA-MB-435) > 100 µM | GI50 (SK-MEL-5 melanoma) 90.9 µM | GI50 (NCI-H522 lung) 6.63 µM | GI50 (COLO 205 colon) 43.3 µM | GI50 (SK-MEL-2 melanoma) 4.93 µM | GI50 (NCI/ADR-RES ovarian) 22.4 µM | GI50 (MALME-3M melanoma) 2.49 µM | GI50 (A549 NSCLC) 29.5 µM | GI50 (SF-539 CNS) 7.18 µM | GI50 (SNB-19 CNS) 22.1 µM | GI50 (PC-3 prostate) 32.4 µM | GI50 (OVCAR-3 ovarian) 12.9 µM | GI50 (MDA-MB-231 breast) 1.67 µM | GI50 (UACC-62 melanoma) 6.81 µM | GI50 (HCT-15 colon) 3.31 µM | GI50 (BT-549 breast) 5.5 µM | GI50 (HT29 colon) > 100 µM | GI50 (U251 CNS) 0.446 µM | GI50 (NCI-H226 lung) 16.7 µM | GI50 (SNB-75 CNS) 4 µM | GI50 (UACC-257 melanoma) 54.9 µM | GI50 (OVCAR-8 ovarian) 6.3 µM | GI50 (UO-31 renal) 30.2 µM | GI50 (SK-OV-3 ovarian) 15.2 µM | GI50 (SW-620 colon) 0.996 µM | GI50 (LOX IMVI melanoma) 3.43 µM | GI50 (MCF7 breast) 7.3 µM | GI50 (HOP-92 NSCLC) 16.2 µM | GI50 (K-562 leukemia) > 100 µM | GI50 (HCC-2998 colon) 4.49 µM | GI50 (RXF 393 renal) 3.85 µM | GI50 (NCI-H23 lung) 8.38 µM | GI50 (HS 578T breast) 3.32 µM | GI50 (CAKI-1 renal) 10.6 µM | GI50 (KM12 colon) > 100 µM | GI50 (RPMI-8226 leukemia) 3.97 µM | GI50 (NCI-H460 lung) 10.8 µM | GI50 (M14 melanoma) 9.24 µM
29.3 µM: TGI (TK-10 renal)
23.1 µM: TGI (IGROV1 ovarian)
30.2 µM: TGI (HOP-62 NSCLC)
2.83 µM: TGI (U251 CNS)
18.8 µM: TGI (SF-295 CNS)
30.9 µM: TGI (CAKI-1 renal)
56.8 µM: TGI (HOP-92 NSCLC)
19.4 µM: TGI (LOX IMVI melanoma)
20.9 µM: TGI (NCI-H23 lung)
20.5 µM: TGI (HCT-15 colon)
59.2 µM: TGI (NCI-H522 lung)
30.1 µM: TGI (OVCAR-3 ovarian)
